# What was measured:
# [1] = Degradation Example 4: oxidation with hydrogen peroxide, monitored by HPLC; type: physicochemical; conditions: after 3 hours at RT
# Method: As a control, the corresponding cyclic nucleotide with phosphorothioate modification (Rp-8-BT-2′-O-Me-cAMPS, Biolog) had been added. The oxidation process was monitored by reversed phase HPLC (RP-18, 30 Vol.-% acetonitrile, 20 mM triethylammonium formate buffer, pH 8.3, 2 ml/min, UV 282 nm). The areas of both peaks were recorded, integrated and compared (Tab. 2).
# [2] = Degradation Example 6: oxidation with hydrogen peroxide, monitored by HPLC; type: physicochemical; conditions: after 1 hour at RT
# Method: Thus, 0.1 μmol of the cyclic boranophosphate 2-chloroadenosine-3′,5′-cyclic boranophosphate, Sp-isomer (Sp-2-Cl-cAMPB, example 71) and 0.1 μmol of the corresponding phosphorothioate 2-chloroadenosine-3′,5′-cyclic phosphorothioate, Rp-isomer (Rp-2-Cl-cAMPS, Biolog) as a control, were each dissolved in 100 μl of water, combined and treated with 10 μl of 30% aqueous hydrogen peroxide (Merck), and another 10 μl after one hour. During 2.5 hours, oxidative degradation was monitored by HPLC (RP-18, 15 Vol.-% acetonitrile, 20 mM triethylammonium formate buffer, pH 6.5, 1.5 ml/min., UV 262 nm). Corresponding peak areas were recorded, integrated and compared (Tab. 5).
# [3] = molecular target: T1, protein kinase G type I α, activated by cGMP (Homo sapiens, UniProt Q13976); assay: Suppression of cGMP-stimulated protein kinase G type I alpha activity; type: biochemical; conditions: 10 nM, 100 nM and 1 μM; cGMP 200 nM
# T1 sequence (Q13976 1-671): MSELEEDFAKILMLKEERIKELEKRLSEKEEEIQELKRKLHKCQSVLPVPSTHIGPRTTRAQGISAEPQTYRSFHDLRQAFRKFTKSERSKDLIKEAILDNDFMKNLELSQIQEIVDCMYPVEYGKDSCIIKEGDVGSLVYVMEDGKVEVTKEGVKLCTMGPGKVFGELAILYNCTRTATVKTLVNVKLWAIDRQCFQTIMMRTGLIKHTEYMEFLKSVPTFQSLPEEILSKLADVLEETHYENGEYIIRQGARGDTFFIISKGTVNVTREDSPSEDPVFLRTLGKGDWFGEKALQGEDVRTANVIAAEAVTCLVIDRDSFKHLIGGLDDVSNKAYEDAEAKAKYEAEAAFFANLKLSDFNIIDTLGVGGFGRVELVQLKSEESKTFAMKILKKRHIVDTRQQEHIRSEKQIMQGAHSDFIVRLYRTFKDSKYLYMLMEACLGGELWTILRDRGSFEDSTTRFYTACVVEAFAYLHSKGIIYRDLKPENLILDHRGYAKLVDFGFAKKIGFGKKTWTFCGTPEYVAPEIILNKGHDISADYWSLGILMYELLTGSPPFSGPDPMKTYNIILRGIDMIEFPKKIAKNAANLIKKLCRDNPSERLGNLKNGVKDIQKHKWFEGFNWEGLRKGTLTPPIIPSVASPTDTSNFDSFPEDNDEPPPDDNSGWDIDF
# [4] = Degradation Example 8: oxidation with hydrogen peroxide, monitored by HPLC; type: physicochemical; conditions: after 1 hour at RT
# Method: Finally, with the Sp-isomer of 8-bromoguanosine-3′,5′-cyclic boranophosphate (Sp-8-Br-cGMPB, example 6) also the oxidative stability of a cyclic boranophosphate with a modified guanine nucleobase was investigated and again compared to the corresponding phosphorothioate Rp-8-bromoguanosine-3′,5′-cyclic phosphorothioate (Rp-8-Br-cGMPS, Biolog).
# Both compounds were treated together with two 10 μl doses of 30% aqueous hydrogen peroxide (Merck). During more than four hours, oxidative degradation was monitored by HPLC (RP-18, 15 Vol.-% acetonitrile, 20 mM triethylammonium formate buffer, pH 6.5, 1.5 ml/min., UV 263 nm) and corresponding peak areas were recorded and compared (Tab. 7).
# [5] = molecular target: protein kinase A type II alpha holoenzyme (Homo sapiens, UniProt P13861); assay: Photometric (Cook) assay with protein kinase A type II alpha holoenzyme; type: biochemical; conditions: activation of protein kinase A type II; data not shown
# Sequence of protein kinase A type II alpha holoenzyme (P13861 whole entry): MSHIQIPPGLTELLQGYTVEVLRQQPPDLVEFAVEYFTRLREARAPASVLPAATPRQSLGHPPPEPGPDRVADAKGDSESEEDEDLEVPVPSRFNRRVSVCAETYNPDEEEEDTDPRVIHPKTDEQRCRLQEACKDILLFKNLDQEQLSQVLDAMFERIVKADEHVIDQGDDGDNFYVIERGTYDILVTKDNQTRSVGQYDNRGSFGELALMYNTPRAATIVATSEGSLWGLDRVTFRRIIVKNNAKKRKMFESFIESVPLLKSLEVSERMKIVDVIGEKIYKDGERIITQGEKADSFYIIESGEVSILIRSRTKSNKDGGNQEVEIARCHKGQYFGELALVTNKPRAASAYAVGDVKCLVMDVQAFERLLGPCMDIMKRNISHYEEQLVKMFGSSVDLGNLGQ
# Text: In another similar experiment the properties of Rp- and Sp-8-Br-cAMPB towards protein kinase A type II a were investigated in the photometric assay (Cook, P. F., Neville, M. E., Jr., Vrana, K. E., Hartl, F. T. and Roskoski, R., Jr., Biochemistry 21, 5794-5799 (1982))
# PDE 1 = assay: Resistance towards phosphodiesterase: incubation with PDE 1 from bovine heart, HPLC; conditions: bovine, pH 7.2
# Method: (§1) For this purpose 0.1 μmol of Rp-8-bromoadenosine-3′,5′-cyclic boranophosphate (example 1) and Sp-8-bromoadenosine-3′,5′-cyclic boranophosphate […] dissolved in TRIS buffer pH 7.2 containing calcium chloride and calmodulin and incubated with PDE type I from bovine brain (Sigma-Aldrich) at 37° C. Activity of the enzyme was checked by hydrolysis of cyclic AMP. Stability was monitored by HPLC (RP-18, 11 Vol.-% propanol-2, 20 mM TEAF buffer, pH 6.8, 1 ml/min., UV 264 nm). […] This strategy of testing PDE performance was applied accordingly in degradation examples 10 and 11.
# (§2) Thus, Rp-8-Br-cAMPB (example 1) and Sp-8-Br-cAMPS (Biolog, Bremen/Germany) were incubated with PDE 1 from bovine heart (Sigma-Aldrich) and monitored by HPLC as described above.
# (§3) Rp-2′-O-Me-cAMPB (example 7) and Sp-2′-O-Me-cAMPS (Biolog, Bremen/Germany).
# PDE 1 from bovine heart = assay: as above; conditions: PDE 1 from bovine heart, up to 8 days of incubation
# Method: as §1, §2, §3
# [6] = molecular target: protein kinase A type I alpha holoenzyme (Homo sapiens, UniProt P10644); assay: Standard photometric (Cook) assay with protein kinase A type I alpha holoenzyme; type: biochemical; conditions: holoenzyme RIα
# Sequence of protein kinase A type I alpha holoenzyme (P10644 whole entry): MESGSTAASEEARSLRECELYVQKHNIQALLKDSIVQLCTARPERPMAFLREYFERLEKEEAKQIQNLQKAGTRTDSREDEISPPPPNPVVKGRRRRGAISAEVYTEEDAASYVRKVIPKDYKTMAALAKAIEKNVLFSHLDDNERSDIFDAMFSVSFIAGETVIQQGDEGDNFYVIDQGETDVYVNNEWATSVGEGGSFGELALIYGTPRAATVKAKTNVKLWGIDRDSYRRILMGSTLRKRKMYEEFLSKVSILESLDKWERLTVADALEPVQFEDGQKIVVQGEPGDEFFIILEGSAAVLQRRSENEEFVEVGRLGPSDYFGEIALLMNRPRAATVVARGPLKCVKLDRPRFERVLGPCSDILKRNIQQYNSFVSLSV
# Text: In a first experiment, the biological activity of the Rp- and Sp-isomer of 8-bromoadenosine-3′,5′-cyclic boranophosphate (examples 1 and 2) has been tested with the holoenzyme of protein kinase A type I alpha (FIGS. 3 and 4) using a standard photometric assay (Cook, P. F.; Neville, M. E., Jr.; Vrana, K. E.; Hartl, F. T. and Roskoski, R., Jr., Biochemistry 21, 5794-5799 (1982)).
# As a control, two boranophosphate analogues with a 2′-O-methyl modification (Rp-2′-O-Me-cAMPB and Sp-2′-O-Me-cAMPB, examples 7 & 8) have been tested by the same type of assay with protein kinase A type I alpha as well.
# FIG. 5 depicts the activity overview of four different cyclic boranophosphate analogues with protein kinase A type I alpha holoenzyme. 9108: Sp-2′-O-Me-cAMPB; 9109: Rp-2′-O-Me-cAMPB; 9110: Sp-8-Br-cAMPB; 9111: Rp-8-Br-cAMPB; controls: B 001: Rp-8-Br-cAMPS. Control: cAMP. “Cook Assay” with Holoenzyme RIα.
# PDE IV (A4B) = molecular target: T2, PDE IV (A4B) (Homo sapiens, UniProt P27815); assay: Stability against PDE IV, HPLC; type: in vitro ADME; conditions: several days
# T2 construct: Houslay lab, Glasgow/Scotland (obtained from another laboratory)
# T2 sequence (P27815 whole entry): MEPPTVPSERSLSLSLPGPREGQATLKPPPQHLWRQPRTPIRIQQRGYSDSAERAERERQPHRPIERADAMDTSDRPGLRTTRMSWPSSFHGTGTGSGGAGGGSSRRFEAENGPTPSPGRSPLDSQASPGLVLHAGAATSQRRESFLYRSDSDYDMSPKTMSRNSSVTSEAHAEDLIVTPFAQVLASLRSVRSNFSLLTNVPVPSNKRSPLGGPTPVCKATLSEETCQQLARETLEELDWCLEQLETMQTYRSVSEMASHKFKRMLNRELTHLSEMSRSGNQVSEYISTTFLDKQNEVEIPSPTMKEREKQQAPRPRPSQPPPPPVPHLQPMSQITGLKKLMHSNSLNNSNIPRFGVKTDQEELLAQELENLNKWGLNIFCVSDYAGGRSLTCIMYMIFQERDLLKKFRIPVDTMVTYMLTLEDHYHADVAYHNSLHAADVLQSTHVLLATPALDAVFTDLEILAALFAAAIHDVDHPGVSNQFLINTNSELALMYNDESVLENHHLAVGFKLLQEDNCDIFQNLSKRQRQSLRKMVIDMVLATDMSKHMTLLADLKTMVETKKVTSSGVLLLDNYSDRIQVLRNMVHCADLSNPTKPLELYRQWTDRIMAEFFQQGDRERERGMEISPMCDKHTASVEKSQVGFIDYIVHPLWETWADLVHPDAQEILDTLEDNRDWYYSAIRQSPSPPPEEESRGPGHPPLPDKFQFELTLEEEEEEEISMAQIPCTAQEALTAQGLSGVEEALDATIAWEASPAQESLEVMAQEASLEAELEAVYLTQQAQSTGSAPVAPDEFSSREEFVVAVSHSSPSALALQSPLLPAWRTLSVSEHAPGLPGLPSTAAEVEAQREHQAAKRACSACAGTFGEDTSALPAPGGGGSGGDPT
# Method: Next, stability of the disclosed boranophosphates against PDE IV (A4B, Houslay lab, Glasgow/Scotland) was tested in similar experiments as described above.
# [7] = tested on: PDE type I from bovine brain; assay: Resistance towards phosphodiesterase: incubation with PDE type I from bovine brain, HPLC; conditions: PDE type I from bovine brain, 37° C., up to 8 days
# Method: Activity of the enzyme was checked by hydrolysis of cyclic AMP. Stability was monitored by HPLC (RP-18, 11 Vol.-% propanol-2, 20 mM TEAF buffer, pH 6.8, 1 ml/min., UV 264 nm).
compound,measurement,setting,value
"8-Benzylthio-2′-O-methyladenosine-3′,5′-cyclic boranophosphate, SP-isomer [Sp-8-BT-2′-O-Me-cAMPB]","peak area, % of the original area",[1],73%
"2-Chloroadenosine-3′,5′-cyclic boranophosphate, Rp-isomer [Rp-2-Cl-cAMPB]","peak area, % of the original area",[2],90%
"B[PH]1(O)OC[C@H]2O[C@@H](n3c(Br)nc4c(=O)[nH]c(N)nc43)C(O)[C@@H]2O1 (stereo partly drawn) [Sp-8-Br-cGMPB, 8-Bromoguanosine-3′,5′-cyclic boranophosphate, Sp-isomer]",antagonism of protein kinase G,[3],showed antagonistic potential
same,"peak area, % of the original area",[4],65%
"Nc1nc(Cl)nc2c1ncn2[C@@H]1O[C@@H]2COP(O)(=S)OC2[C@@H]1O (single isomer, unassigned) [Rp-2-Cl-cAMPS, 2-chloroadenosine-3′,5′-cyclic phosphorothioate, Rp-isomer, reference compound]",degraded,[2],22%
"Nc1nc2c(nc(Br)n2[C@@H]2O[C@@H]3COP(O)(=S)O[C@H]3[C@H]2O)c(=O)[nH]1 (stereo partly drawn) [Rp-8-Br-cGMPS, Rp-8-bromoguanosine-3′,5′-cyclic phosphorothioate, reference compound]",degraded,[4],15%
"Nc1ncnc2c1nc(Br)n2C1OC2COP(O)(=S)OC2C1O (stereo not drawn) [Sp-8-Br-cAMPS, Sp-8-bromoadenosine-3′,5′-cyclic phosphorothioate, reference compound]",EC50,[5],0.71 µM
same,half-life,PDE 1,~50 h
"B[PH]1(O)OC[C@H]2O[C@@H](n3cnc4c(N)ncnc43)C(OC)[C@@H]2O1 (stereo partly drawn) [Rp-2′-O-Me-cAMPB, 2′-O-Methyladenosine-3′,5′-cyclic boranophosphate, Rp-isomer]",degradation by PDE,PDE 1 from bovine heart,stable over the whole assay period
same,effect on protein kinase A type I alpha holoenzyme,[6],neither Rp- nor Sp-2′-O-Me-cAMPB did modulate the kinase in any way
same,stability against PDE IV,PDE IV (A4B),completely stable
same,degradation by PDE,[7],stable over the whole assay period
